Experimental data: paper PMC5500575, “Identification of Histamine H3 Receptor Ligands Using a New Crystal Structure Fragment-based Method” (Scientific Reports, 2017)
Entries after “also recorded” stand apart in the source; their conditions may differ.

Assays:
H3 receptor = target: H3 receptor; parameters: method as in ChEMBL [64]; conditions: known H3 ligand; ref ChEMBL [64]; cited from earlier work
[1] = target: T1, human histamine H3 receptor (Homo sapiens, UniProt Q9Y5N1); assay: IP-One (HTRF IP1 accumulation) assay, H3 receptor co-expressed with chimeric Gqi5 in tsA201 cells; assay type: cell-based; conditions: antagonist mode; for Result of first pharmacological assaying (pharmacophore screening hits): 20 µM compound, EC80 histamine; for IC50 / pIC50 ± SEM: in the presence of EC80 of histamine
T1 construct: expressed in transfected cells; host or cells: tsA201 cells (transformed HEK-293), transient transfection
T1 sequence (Q9Y5N1 whole entry): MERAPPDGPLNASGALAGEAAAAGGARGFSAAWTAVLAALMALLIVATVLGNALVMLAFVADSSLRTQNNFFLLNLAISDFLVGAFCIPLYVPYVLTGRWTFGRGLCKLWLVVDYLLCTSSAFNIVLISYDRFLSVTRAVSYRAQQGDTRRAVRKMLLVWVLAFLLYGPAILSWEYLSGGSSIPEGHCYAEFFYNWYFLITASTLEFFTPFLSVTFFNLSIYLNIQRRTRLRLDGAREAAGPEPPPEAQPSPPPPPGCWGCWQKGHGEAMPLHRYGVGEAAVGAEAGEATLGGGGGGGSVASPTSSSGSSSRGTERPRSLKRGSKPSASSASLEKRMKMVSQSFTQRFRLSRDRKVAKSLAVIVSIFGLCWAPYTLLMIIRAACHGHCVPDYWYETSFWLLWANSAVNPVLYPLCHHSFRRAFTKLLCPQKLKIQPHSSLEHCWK
Protocol: Human tsA201 cells, a transformed HEK-293 cell line[70], were cultivated in Dulbecco’s Modified Eagle’s Medium (DMEM) with GlutaMAX, supplemented with 10% foetal bovine serum, penicillin 100 U/ml and streptomycin 100 µg/ml. Subconfluent cells grown in a 100 mm dish were transfected with 5 μg DNA using the Polyfect transfection reagent using the protocol of the manufacturer (Qiagen, West Sussex, UK), however with half of the recommended PolyFect volumes. Co-transfections (ratio 4:1) were performed with either constructs expressing the human histamine H3 receptor together with an empty vector and chimeric G protein Gqi5, respectively.
We applied the highly sensitive high-throughput homogeneous time-resolved fluorescence (HTRF) technology[71] for detection of IP-One generation using the Cisbio IP-One Tb assay kit, exactly as previously described. In brief, on the day of assay, ligand solutions were prepared in ligand buffer (Hank’s Balanced Salt Solution (HBSS) containing 20 mM HEPES pH 7.4, 1 mM CaCl2, 1 mM MgCl2, 40 mM LiCl)) and added to the wells of a 384-well OptiPlate (PerkinElmer, Waltham, USA) in triplicates. When testing for antagonist activity the ligand buffer was supplemented with an EC80 concentration of histamine, and we used a final compound concentration of 20 µM and 2 µM for the first (virtual hits) and second (analogues) screening, respectively. Cell suspensions were added and incubated with ligands for 1 hour, followed by the addition of detection solution (IP-One Tb conjugate & Lysis Buffer +2.5% anti-IP1 cryptate Tb conjugate +2.5% IP1-d2 conjugate. 38:1:1) and incubation in the dark for one hour at room temperature. The plate was read on an EnVision 2104 Multilabel Reader (PerkinElmer) by exciting the wells with light of 340 nm and measuring the emission at 615 nm and 665 nm. The fluorescence resonance energy transfer ratios (665 nm/615 nm) were converted to IP1 concentrations by interpolating values from an IP1 standard curve generated from an IP1 calibration stock, provided by the manufacturer (Cisbio).
Data were analysed using GraphPad Prism 6 (GraphPad Software, San Diego, CA, USA). Concentration-response curves were fitted by nonlinear regression to equation (1):1 R=Rmax+Rmax−Rmin/1+10^(logIC50−X)∗nH where X is the logarithm of the concentration, R is the response, R max is the maximal response, R min is the minimal response, IC50 is the concentration giving half-maximum reduction of the response, and nH is the Hill coefficient, which describes the steepness of the curve. IP-One assay results are reported either as raw FRET in arbitrary units, as IP1 concentration (nM) or as fold over basal (normalized to the basal level of IP1 in ligand buffer [IP1]/[IP1]basal). The Z′-factors were calculated using equation (2):2 Z′=1−3σc++3σc−/|µc+−µc−|

human H3 receptor = target: T2, human H3 receptor (Homo sapiens, UniProt Q9Y5N1); assay: [3H]N-α-methylhistamine radioligand competition binding assay; conditions: for Ki / Affinity (pKi): 0.3 nM [3H]N-α-methylhistamine; for Ki: Cheng-Prusoff with Kd 0.15 nM; for Affinity (pKi): ± SEM; for Change of potency upon repeated experimentation: possibly due to compound breakdown; for Competition with [3H]N-α-methylhistamine binding (in words): 0.3 nM radioligand, NSB defined with 10 µM histamine
T2 construct: expressed in transfected cells; host or cells: HEK-293T cells, membranes
T2 sequence (Q9Y5N1 whole entry): as above
Protocol: HEK-239T cells were grown to 70% confluency in 150 mm cell culture dishes and transfected with 8 µg human H3 receptor using the Polyfect transfection reagent as previously described. After 48 hours, cells were washed from each cell culture dish with Dulbecco’s phosphate buffered saline and harvested using a cell scraper. The resulting cell suspension was then centrifuged and resuspended in 500 µL lysis buffer (50 mM Tris-HCl, pH 7.4). The cell lysate was centrifuged at 16,000 g for 20 minutes at 4 °C. The resultant membrane pellets were stored at −80 °C until use. Each pellet was resuspended in 500 µL binding buffer (50 mM Tris-HCl, 0.5 mM EDTA, pH 7.4), homogenized and centrifuged at 16,000 g for 15 minutes at 4 °C, and subsequently resuspended in 15 mL of binding buffer to a desired protein concentration of approximately 0.2 mg/mL as determined by the method of Bradford[73]. The membrane solution (30 µg protein per well) was incubated for 90 minutes in 250 µL of binding buffer, with or without compound, together with 0.3 nM [^3H]N-α-methylhistamine at room temperature. Non-specific binding was defined as the radioligand bound to membrane solution incubated with 10 µM histamine. The binding reaction was terminated by rapid filtration through Whatman GF/C unifilters (PerkinElmer), and washed four times with ice-cold wash buffer (50 mM Tris-HCl, 10 mM MgCl2, 0.1 mM EDTA, pH 7.4) using a 96-well Packard FilterMate cell harvester (PerkinElmer). Finally, Microscint 0 scintillation liquid (PerkinElmer) was added to the dried filters, and the radioactivity quantified in a Packard TopCount NXT microplate Scintillation Counter (PerkinElmer).
The binding data was fitted by nonlinear regression to equation (3):3 Y=Ymax+Ymax−Ymin/1+10^X−logIC50 where X is the logarithm of the concentration, Y is the specific binding, Y max is the maximal specific binding, Y min is the minimal specific binding, and IC50 is the concentration giving half-maximum reduction in specific binding.

mouse H3 receptor = conditions: Gqi5, Ca2+ release; cited from earlier work

Compound: CN(C)CCCNc1c2c(nc3ccccc13)CCCCC2 [ChEMBL 65849]
- Affinity (pKi) of most similar ChEMBL ligand (H3 receptor): 8.0

Compound: CN1CCC(C(=O)c2cc3cc(Cl)ccc3[nH]2)CC1 [ChEMBL 186456]
- Affinity (pKi) of most similar ChEMBL ligand (H3 receptor): 5.5

Compound: CNCc1cc(C#CCCN2CCNC(=O)C2)ccc1Oc1ccc(SC)cc1 [ChEMBL 237514]
- Affinity (pKi) of most similar ChEMBL ligand (H3 receptor): 6.1

Compound: COc1cccc(OCCN2CCC(N3CCCCC3)CC2)c1 [ChEMBL 460313]
- Affinity (pKi) of most similar ChEMBL ligand (H3 receptor): 6.9

Compound: c1ccc2c(c1)nc1n(CCN3CCCCC3)cnn21 [ChEMBL 1923529]
- Affinity (pKi) of most similar ChEMBL ligand (H3 receptor): 6.2

Compound: OC1(c2ccccn2)CCCN(c2nnc(N3CCC(N4CCCCC4)CC3)s2)C1 (centres unmarked) [ChEMBL 2048591]
- Affinity (pKi) of most similar ChEMBL ligand (H3 receptor): 7.3

Compound: CCN(Cc1nc2ccccc2[nH]1)CC1CCCN(CCc2cccc(OC)c2)C1 (centres unmarked) [Compound 9]
- Result of first pharmacological assaying (pharmacophore screening hits) [1]: seemingly active
- Ki (human H3 receptor): 1.75 µM
- Affinity (pKi) (human H3 receptor): 5.76±0.25
- Change of potency upon repeated experimentation (human H3 receptor): continued decrease in potency observed upon repeated experimentation

Compound: Cc1nccn1-c1ccc(CNCc2cccc(C#N)c2)cc1F [Compound 20]
- Result of first pharmacological assaying (pharmacophore screening hits) [1]: borderline activity
- Ki (human H3 receptor): 4.24 µM
- Affinity (pKi) (human H3 receptor): 5.37±0.12
- Change of potency upon repeated experimentation (human H3 receptor): continued decrease in potency observed upon repeated experimentation

Compound: Cc1nc(N2CCN(c3ncc[nH]c3=O)CC2)c2sccc2n1 [Compound 21]
- Result of first pharmacological assaying (pharmacophore screening hits) [1]: antagonist hits
- IC50 [1]: 20.9 µM
- pIC50 ± SEM [1]: 4.68±0.10
- Ki (human H3 receptor): > 50 µM
- Competition with [3H]N-α-methylhistamine binding (in words) (human H3 receptor): little to no effect on radiolabeled ligand binding; also recorded: unable to compete with binding

Compound: CCCCN1CN(CCCN2CCCCC2)Cn2c1nc1ccccc12 [Compound 35]
- Result of first pharmacological assaying (pharmacophore screening hits) [1]: antagonist hits
- IC50 [1]: 3.3 µM
- pIC50 ± SEM [1]: 5.5 ± 0.27
- Ki (human H3 receptor): 1.75 µM
- Affinity (pKi) (human H3 receptor): 5.76 ± 0.05

Compound: Cc1ccc2c(c1)c1c3n2CCN(CC(O)CNCc2ccccc2)C3CCC1 (centres unmarked) [Compound 42]
- Result of first pharmacological assaying (pharmacophore screening hits) [1]: antagonist hits
- IC50 [1]: 42.1 µM
- pIC50 ± SEM [1]: 4.38±0.11
- Ki (human H3 receptor): 14.8 µM
- Affinity (pKi) (human H3 receptor): 4.83±0.08
- Competition with [3H]N-α-methylhistamine binding (in words) (human H3 receptor): unable to outcompete radiolabeled ligand to NSB levels; also recorded: unable to lower the binding of [^3H]N-α-methylhistamine to non-specific binding levels

Compound: Cc1ccc(CN2CCCN(C(=O)CCSCc3cn4ccccc4n3)CC2)cc1 [Compound 44]
- Result of first pharmacological assaying (pharmacophore screening hits) [1]: seemingly active
- Ki (human H3 receptor): 2.82 µM
- Affinity (pKi) (human H3 receptor): 5.55±0.06
- Competition with [3H]N-α-methylhistamine binding (in words) (human H3 receptor): unable to outcompete radiolabeled ligand to NSB levels; also recorded: unable to lower the binding of [^3H]N-α-methylhistamine to non-specific binding levels

Compound: CCN1CCNC(=O)C1CC(=O)N1CCc2[nH]c3c(C)cccc3c2C1 (centres unmarked) [Compound 64]
- IC50 [1]: 261 µM
- pIC50 ± SEM [1]: 3.58±0.17
- Ki (human H3 receptor): 86.7 µM
- Affinity (pKi) (human H3 receptor): 4.06±0.11

Compound: CCCCN1CN(CCCN(C)c2ccccc2)Cn2c1nc1ccccc12 [Compound 68]
- IC50 [1]: 22 µM
- pIC50 ± SEM [1]: 4.66±0.20
- Ki (human H3 receptor): > 300 µM
- Competition with [3H]N-α-methylhistamine binding (in words) (human H3 receptor): little to no effect on radiolabeled ligand binding; also recorded: unable to compete with binding

Compound: Cc1ccc2c(c1)c1c3n2CCN(CC(O)CN2CCN(C)CC2)C3CCC1 (centres unmarked) [Compound 75]
- IC50 [1]: 121 µM
- pIC50 ± SEM [1]: 3.92±0.18
- Ki (human H3 receptor): 4.82 µM
- Affinity (pKi) (human H3 receptor): 5.32±0.04

Compound: NCCc1c[nH]cn1 [histamine]
- EC50 (mouse H3 receptor): 0.0218 µM
